Here are results for 28 molecules from US5612360A, “Angiotensin II antagonists” (Eli Lilly and Company, priority 1993, dated 1997).

pKi: −log10 of the molar value.

In the first test the target is T1, rabbit aorta (Oryctolagus cuniculus, UniProt P34976).
T1 sequence (P34976 1-359): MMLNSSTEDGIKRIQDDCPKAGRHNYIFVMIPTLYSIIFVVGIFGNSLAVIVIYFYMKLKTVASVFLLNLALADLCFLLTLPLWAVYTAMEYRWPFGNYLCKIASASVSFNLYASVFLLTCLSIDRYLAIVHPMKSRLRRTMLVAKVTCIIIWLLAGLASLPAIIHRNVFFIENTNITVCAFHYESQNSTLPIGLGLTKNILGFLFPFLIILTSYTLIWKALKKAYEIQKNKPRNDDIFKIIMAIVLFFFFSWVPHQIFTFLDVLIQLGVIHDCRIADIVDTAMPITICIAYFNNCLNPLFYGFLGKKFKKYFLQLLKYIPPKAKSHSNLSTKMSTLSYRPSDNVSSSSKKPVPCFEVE
Nature of the test: Rabbit Aorta Test System: antagonism of angiotensin II-induced contraction of thoracic aorta rings. The test is classed as cell-based, New Zealand white rabbit. Conditions: pA2 = -log KB; AII concentration response curve 10^-10 to 10^-7 M, 30 minutes incubation, 37° C.
For “1-[5(and 6)-[2-(2H-Tetrazol-5-yl)phenyl]-2-pentyl-1H-benzimidazol-1-yl]acetic acid [Example 61]”, the “Rabbit Aorta (pA2)” value is 5.4.

On to `CCCC/C=C/C(C(=O)O)n1ccc2cc(-c3ccccc3-c3nn[nH]n3)ccc21` (stereo not drawn) [Example 25A, 2-[5-[2-(2H-Tetrazol-5-yl)phenyl]indol-1-yl]-3-trans-octenoic acid], for which the “Rabbit Aorta (pA2)” value was 6.5.

“4-Butoxy-2-[5(and 6)-[2-(2H-tetrazol-5-yl)phenyl]-1H-benzimidazol-1-yl]-butanoic acid [Example 11]”: the “Rabbit Aorta (pA2)” value is on record as 6.7.

Consider `CCCCCC#CC(C(=O)O)n1cnc2cc(-c3ccccc3-c3nn[nH]n3)ccc21` (stereo not shown) [Example 16], for which the “Rabbit Aorta (pA2)” value worked out at 7.2.

Regarding `CCCC/C=C\C(C(=O)O)n1ccc2cc(-c3ccccc3-c3nn[nH]n3)ccc21` (stereo not drawn) [Example 25B, 2-[5-[2-(2H-tetrazol-5-yl)phenyl]indol-1-yl]-3-cis-octenoic acid], the “Rabbit Aorta (pA2)” value was 7.3.

Take “2-[1-Hexyl-5-[2-(2H-tetrazol-5-yl)phenyl]-1H-benzimidazol-2-yl]propionic Acid [Example 30]”: the “Rabbit Aorta (pA2)” value is 6.5.

A further test concerns the target angiotensin II receptor. Nature of the test: Adrenal Glomerulosa Test System: displacement of I^125-angiotensin II binding to rat adrenal membranes. To be noted: I^125-angiotensin II 0.1 nM, room temperature, 90 minutes, KI by Cheng Prusoff equation. As for the experimental part:
The compounds of Formula I are potent effective antagonists of angiotensin II. The ability of representative compounds of Formula I to block angiotensin II receptor binding was determined using the adrenal glomerulosa assay. The ability to antagonize angiotensininduced vasoconstriction was evaluated in the rabbit aorta test system.
Binding of I^125 -angiotensin II to adrenal membranes was routinely carried out in 96-well filtration plates. Adrenal membranes were prepared from the capsular portion (glomerulosal layer attached) of rat adrenal glands by differential centrifugation. Briefly, capsules were homogenized in a solution containing sucrose, 250 mM; MgCl2, 1 mM; and tris, 5 mM at pH 7.5 and 4° C. using a polytron at setting 5 for 20 seconds. The homogenate was stirred gently for 15 minutes at 4° C. and then centrifuged 10 minutes, at 1000×g, 4° C. The supernatant was centrifuged 30 minutes, at 30,000×g, 4° C., and the resulting pellet resuspended in 50 mM tris. Membrane preparations were stored in aliquots at -70° C. until used. Binding of I^125 -angiotensin II to adrenal membranes was performed at room temperature for 90 minutes in 96-well plates containing a hydrophilic polyvinylidene fluoride membrane (0.45 μm, Millipore-GV multiscreen). Each 250 μl incubate contained the following (final concentration): tris, 50 mM; NaCl, 120 mM; MgCl2, 5 mM; dithiothrietol 1 mM; bovine serum albumin, 0.05%; I^125 -angiotensin II, 0.1 nM; and adrenal membrane protein, 8-15 μg. Antagonists were added in concentrations from 10 nM to 100 μM. Non-specific binding was measured in the presence of 0.1 μM Sar1, Ile8 angiotensin II. Binding was terminated by vacuum filtration. Receptor-ligand complex trapped on filters was washed 3 times with 300 μl ice-cold wash solution (tris, 50 mM; NaCl, 120 mM; MgCl2, 5 mM; dithiothrietol, 1 mM). Filter discs were dried, punched out and counted in a gamma counter at 52% efficiency. Specific binding represented 96% of total binding (approximately 150 fmol angiotensin II/mg protein). The molar concentration (IC50) of the inhibitor that displaced 50% of the binding of 1125 angiotensin II for each compound was calculated using a 4 parameter logistics model (NonLin, SAS Institute). Data are expressed as KI (μm) calculated using the Cheng Prusoff equation. See Cheng et al. Biochemo Pharmacol. 22: 3099 (1973).
`CCCCCCC(C(=O)O)n1ccc2cc(-c3ccccc3C(=O)O)ccc21` (stereo not shown) [Example 1, 2[-5-(2-Carboxyphenyl)indol-1-yl]octanoic acid] showed a pKi of 5.41.

As to `CCCCCCC(C(=O)N1CCC(C(=O)O)C1)n1cnc2cc(-c3ccccc3-c3nn[nH]n3)ccc21` (stereo not shown) [Example 44], the pKi is 6.70.

`CCCCCCC(C(=O)O)n1c(C(F)(F)F)nc2cc(-c3ccccc3-c3nn[nH]n3)ccc21` (stereo not shown) [Example 6, 2-[5-[2-(2H-Tetrazol-5-yl)phenyl]-2-trifluoromethyl-1H-benzimidazol-1-yl]octanoic acid] gave a pKi of 7.07.

In turn, `CCCCCCC(c1nccn1C)n1cnc2cc(-c3ccccc3-c3nnn[nH]3)ccc21` (stereo not shown) [Example 14, 1-Methyl-2-[1-[5-2-(2H-Tetrazol-5-yl)phenyl-1H-benzimidazol-1-yl]heptyl]-1H-imidazole] gave a pKi of 5.97.

`CCCCCCC(C(=O)O)n1cc(Cc2ccccc2)c2cc(-c3ccccc3-c3nn[nH]n3)ccc21` (stereo not shown) [Example 24, 2-[3-benzyl-5-[2-(2H-tetrazol-5-yl)phenyl]indol-1-yl]octanoic Acid]: the pKi is 4.86.

`CCCCCCC(C(=O)N(C)CC(=O)O)n1cnc2cc(-c3ccccc3-c3nn[nH]n3)ccc21` (stereo not shown) [Example 37, 1-[1-Oxo-2-[5-[2-(2H-tetrazol-5-yl]phenyl]-1H-benzimidazol-1]octyl]-N-methylglycine] showed a pKi of 7.09.

Regarding `CCCCCCC(C(=O)N1CCC[C@H]1C(=O)O)n1cnc2cc(-c3ccccc3-c3nn[nH]n3)ccc21` (stereo partly drawn) [Example 9, 1-[1-Oxo-2-[5-[2-(2H-tetrazol-5-yl)phenyl]-1H-benzimidazole-1-yl]octyl]-L-proline], the pKi was 7.54.

Take `CCCCCCC(C(=O)O)n1ccc2cc(-c3cccc(O)c3C(=O)O)ccc21` (stereo not shown) [Example 2, 2-[5-(2-Carboxy-3-hydroxyphenyl)indol-1-yl]octanoic acid]: the pKi was 5.02.

Molecule `CCCCCCC(C(=O)N[C@@H](CO)C(=O)O)n1cnc2cc(-c3ccccc3-c3nn[nH]n3)ccc21` (stereo partly drawn) [Example 42, N-[1-oxo-2-[5-[2-(2H-tetrazol-5-yl]phenyl]-1H-benzimidazol-1-yl]octyl]-L-serine] had a pKi of 6.58.

`CCCCCCC(C(=O)O)n1cnc2cc(-c3ccccc3-c3nn[nH]n3)ccc21` (stereo not shown) [Example 3, 2-[5-[2-(2H-Tetrazol-5-yl)phenyl]-1H-benzimidazol-1-yl]octanoic acid] had a pKi of 5.25.

As to `CCCCC(c1ccc(C(F)(F)F)cc1)n1ccc2cc(-c3ccccc3-c3nn[nH]n3)ccc21` (stereo not shown) [Example 29, 5-[2-(2H-tetrazol-5-yl)phenyl]-1-[1-(4-trifluoromethylphenyl)-1-pentyl]indole], the pKi is 4.72.

Turning to `CCCCCCC(C(=O)N1CC(O)C[C@H]1C(=O)O)n1cnc2cc(-c3ccccc3-c3nn[nH]n3)ccc21` (stereo partly drawn) [Example 13, 1-[1-oxo-2-[5-[2-(2H-tetrazol-5-yl)phenyl]-1H-benzimidazole-1-yl]octyl]-4-hydroxy-L-proline], the pKi is 8.38.

Turning to `CCCCC(c1cccc(C(F)(F)F)c1)n1ccc2cc(-c3ccccc3-c3nn[nH]n3)ccc21` (stereo not shown) [Example 28, 5-[2-(2H-tetrazol-5-yl)phenyl]-1-[1-(3-trifluoromethylphenyl)-1-pentyl]indole], the pKi was 4.84.

In the case of `CCCCCCC(C(=O)O)n1c(C)nc2cc(-c3ccccc3-c3nnn[nH]3)ccc21` (stereo not shown) [Example 5], the negative logarithm of the Ki (pKi) was 6.44.

Molecule `CCCCCCC(C(=O)N1CCC1C(=O)O)n1cnc2cc(-c3ccccc3-c3nn[nH]n3)ccc21` (stereo not shown) [Example 43] had a pKi of 7.16.

`CCCCCCC(c1nnn[nH]1)n1cnc2cc(-c3ccccc3-c3nnn[nH]3)ccc21` (stereo not shown) [Example 34] had a pKi of 7.21.

The molecule `CCCCCCC(C(=O)O)n1cc(Br)c2cc(-c3ccccc3-c3nnn[nH]3)ccc21` (stereo not shown) [Example 26, 2-[3-Bromo-5-[2-[2H-tetrazol-5-yl)phenyl]indo-1-yl]octanoic Acid] gave a pKi of 5.24.

`CCCCCCC(C(=O)N1CC2(C[C@H]1C(=O)O)OCCO2)n1cnc2cc(-c3ccccc3-c3nn[nH]n3)ccc21` (stereo partly shown) [Example 40]: the pKi was 6.60.

Take `CCCCCCC(C(=O)O)n1ncc2cc(-c3ccccc3-c3nn[nH]n3)ccc21` (stereo not shown) [27 2H]: the pKi was 5.27.

With `CCCCCCC(CC(=O)O)n1ccc2cc(-c3ccccc3-c3nn[nH]n3)ccc21` (stereo not shown) [Example 21, 3-[5-[2-(2H-Tetrazol-5-yl)phenyl]indol-1-yl]nonanoic Acid], the pKi was 5.65.

`CCCCCCC(C(=O)N[C@@H](CC(=O)O)C(=O)O)n1cnc2cc(-c3ccccc3-c3nn[nH]n3)ccc21` (stereo partly drawn) [Example 41, N-[1-Oxo-2-[5-[2-(2H-tetrazol-5-yl]phenyl]-1H-benzimidazol-1-yl]octyl]-L-aspartic Acid] showed a pKi of 7.00.

The molecule `CCCCCC(C(=O)O)n1ccc2cc(-c3ccccc3-c3nn[nH]n3)ccc21` (stereo not shown) [Example 22, 2-[5-[2-(2H-Tetrazol-5-yl)phenyl]indol-1-yl]heptanoic Acid] gave a pKi of 5.76.

One may read the pKi as −log10 of the Ki, conventionally taken in molar units.
